In series [1] the test system is alcohol-preferring (P) rats. The series can be described thus: Ethanol consumption, 24-hour-access two-bottle choice (10% ethanol vs. water), P rats. It counts as in vivo, rat. The following applies: for decrease from baseline in alcohol consumption: Example 1, topiramate 10 mg/kg IP, ondansetron 0.001 mg/kg IP, test session, mean±SE of 17 rats; for decrease from baseline in alcohol consumption / preference for ethanol over water, average on test sessions / preference for ethanol over water, baseline change: P rats; for ethanol consumption vs baseline: Example 4, P rats N=18, topiramate 10 mg/kg, ondansetron 0.001 mg/kg, FIG. 4A; for preference for ethanol over water, average on test sessions: baseline average preference 0.6±0.2; for preference for ethanol over water, baseline change: test sessions. As for the experimental part: Combined effect of topiramate (10 mg/kg, IP) and ondansetron (0.001 mg/kg, IP) on alcohol consumption in alcohol-preferring (P) rats. […] Data were plotted across 7 consecutive sessions, which include a 3-day baseline period, the test session in which the ondansetron and/or topiramate injection was administered, and the 3 sessions that followed the test session. […]
(§1) The effects of ondansetron and topiramate were examined for their ability to modulate two important aspects of alcohol abuse: total consumption and relapse. Total consumption was examined under a 24-hour-access two-bottle choice procedure wherein rats had unlimited access to alcohol solutions (10%) and water. Alcohol relapse was assessed in alcohol-dependent rats by examining alcohol consumption following an extended abstinence period. Specifically, in alcohol-dependent rats, when alcohol is reintroduced following an extended abstinence period, rats show marked increases in consumption as compared with levels of consumption prior to abstinence.
(§2) 1) The combination of topiramate and ondansetron reduces ethanol consumption in rats: Total consumption was examined under a 24-hour-access two-bottle choice procedure (10% ethanol vs. water). To induce drinking, both Wistar and P rats were trained onto ethanol using a standard sucrose fading procedure. […] At baseline, the average preference was 0.6±0.2, and the average values observed on test sessions with topiramate alone, ondansetron alone, the combination of topiramate and ondansetron, and vehicle were 0.51±0.2 (−9±4% baseline change), 0.58±0.0 (1±2%), 0.51±0.03 (−11±4%), and 0.59±0.03 (1%±0), respectively. […] At baseline, the average preference ratio was 0.30±0.03 and the average values observed on test sessions with topiramate alone, ondansetron alone, the combination of topiramate and ondansetron, and vehicle were 0.25±0.03 (−6±7% baseline change), 0.26±0.04 (2±2%), 0.31±0.02 (1±3%; P<0.05), and 0.3±0.03 (6%±4), respectively.

The next series relates to Wistar rats. The series can be described thus: Ethanol consumption, 24-hour-access two-bottle choice, Wistar rats. The conditions noted are these: for alcohol consumption, change from baseline: Example 3, ondansetron 0.001 or 0.01 mg/kg with topiramate 10 mg/kg IP, 4 to 5 rats, FIG. 3; for alcohol consumption, change from baseline / preference ratio for ethanol over water, average on test sessions / preference for ethanol over water, baseline change: Wistar rats; for ethanol consumption: Example 4, Wistar rats n=5, preliminary, FIG. 4B; for preference ratio for ethanol over water, average on test sessions: baseline average 0.30±0.03; for preference for ethanol over water, baseline change: test sessions. It counts as in vivo, rat. As for the experimental part: Combined effect of topiramate (5 and 10 mg/kg, IP) and ondansetron (0.001 and 0.01 mg/kg, IP) on alcohol consumption in Wistar rats. […] The experiments utilized four to five rats per condition. Data are expressed as change from baseline levels of alcohol consumption.
as §1, §2

Series [2] deals with early-onset alcoholics. The following applies: ondansetron in early-onset alcoholics.
Series [3] deals with early-onset alcoholics. The conditions noted are these: cited from earlier work.
Series [4] relates to alcohol-preferring (P) rats. Nature of the series: Alcohol deprivation effect (ADE, relapse model), P rats. It counts as in vivo, rat. The following applies: for alcohol deprivation effect (ADE), consumption 24 hours after ethanol reinstated: Example 4, chronic daily treatment from day 8 of 15-day withdrawal, topiramate 10 mg/kg, ondansetron 0.001 mg/kg, FIG. 5A. As for the experimental part:
as §1

The test system of series [5] is alcohol-dependent subjects. The following applies: topiramate alone, cited from earlier work.
The test system of series [6] is alcohol-dependent subjects. Nature of the series: Topiramate alone in alcohol dependence (comparison data from a different study). Format: in vivo, human.

On to `Cc1nccn1CC1CCc2c(c3ccccc3n2C)C1=O` (stereo not drawn) [Ondansetron, 9-methyl-3-[(2-methyl-1H-imidazol-1-yl)methyl]-1,2,3,9-tetrahydrocarbazol-4-one], for which, in series [1], the “decrease from baseline in alcohol consumption” value is on record as 1%±7%; the “ethanol consumption vs baseline” value is listed as “did not impact ethanol consumption on its own”; the “preference for ethanol over water, average on test sessions” value was determined as 0.58±0.0; the “preference for ethanol over water, baseline change” value (“preference … baseline change” for short) is 1±2%. Further, in the series with Wistar rats, the “alcohol consumption, change from baseline” value is on record as “lack of modulation”; the ethanol consumption result is on record as “no affect was observed on consumption”; the “preference ratio for ethanol over water, average on test sessions” value is given as 0.26±0.04; the “preference … baseline change” value was determined as 2±2%. Moreover, in the series on early-onset alcoholics [2], the “Cohen's effect size: drinks per day” value was −0.55, the “Cohen's effect size: drinks per drinking day” value was −0.48 and the “Cohen's effect size: percentage of days abstinent” value was “+0.27”. Moreover, in the series with early-onset alcoholics [3] (individuals taking ondansetron alone), the “report of weight loss” value is “no appreciable report of weight loss”. In addition, the paresthesia entry in the series with early-onset alcoholics [3] (ondansetron administered alone) was “not associated with paresthesia”. Besides, the “mean reduction in drinks per day” value in the series with early-onset alcoholics [3] (ondansetron alone in early-onset alcoholics) is recorded as −3.28 drinks per day. In addition, the “alcohol deprivation effect (ADE), consumption 24 hours after ethanol reinstated” value in series [4] is “blocked the ADE”.

`CC1(C)O[C@@H]2[C@@H](CO[C@@]3(COS(N)(=O)=O)OC(C)(C)O[C@@H]23)O1` [Topiramate, 2,3:4,5-Bis-O-(1-methylethylidene)-beta-D-fructopyranose sulfamate]: in series [1], the “decrease from baseline in alcohol consumption” value is given as 13±5%; the “ethanol consumption vs baseline” value is on record as “significant decrease from baseline ethanol consumption”; the “preference for ethanol over water, average on test sessions” value is on record as 0.51±0.2; the “preference … baseline change” value is recorded as −9±4%. Also, in the series with Wistar rats, the “alcohol consumption, change from baseline” value is “lack of modulation”; the ethanol consumption entry is “no affect was observed on consumption”; the “preference ratio for ethanol over water, average on test sessions” value came to 0.25±0.03; the “preference … baseline change” value is given as −6±7%. In series [5] (different study), the “adverse event rate: dizziness” value is listed as 28%, the “adverse event rate: paresthesia” value was 54% and the “adverse event rate: slowing in psychomotor performance” value was 27%. The “individuals reporting weight loss” value in series [5] was 19.7%. Besides, the frequency of paresthesia entry in series [5] (share of individuals) is “over 50%”. Also, in series [6], the “Cohen's effect size: drinks per day” value is listed as −0.80, the “Cohen's effect size: drinks per drinking day” value is −0.63 and the “Cohen's effect size: percentage of days abstinent” value is “+0.73”. Further, the “alcohol consumption following a two-week abstinence period (alcohol deprivation effect)” value in series [4] (Example 2, topiramate 10 mg/kg IP, ondansetron 0.001 mg/kg IP, 2 to 3 rats, FIG. 2) is listed as “attenuated the alcohol deprivation effect”. Moreover, the “alcohol deprivation effect (ADE), consumption 24 hours after ethanol reinstated” value in series [4] is “blocked the ADE”.

Values taken from US20100041689A1, “Combined Effects of Topiramate and Ondansetron on Alcohol Consumption” (UNIVERSITY OF VIRGINIA PATENT FOUNDATION, priority 2006, published 2010).
